{"source": "patent US20110070232A1", "about": "“Combination Therapy with an Antitumor Alkaloid” (Pharma Mar, S.A., priority 2008, published 2011)", "assay_in_all_cases": "IC50 determination, MTS assay, 72 h (Example 1)", "type_in_all_cases": "cell-based", "conditions_in_all_cases": "72 hours of drug exposure", "key": {"[1]": {"system": "HGC-27 human gastric carcinoma cell line", "method": "(§1) The human gastric carcinoma cell lines selected for this assay were the following: Hs746T, HGC-27, and AGS cell lines. Hs746T and AGS cell lines were grown in Dulbecco's modified Eagle's medium (DMEM) supplemented with 10% Fetal Bovine Serum (FBS), 1.5 g/L sodium bicarbonate, 4.5 g/L glucose and 4 mM L-glutamine. HGC-27 cell line was grown in Iscove's modified Dulbecco's medium (IMDM) supplemented with 20% FBS and 2 mM L-glutamine.\n(§2) The day before plating, the cells were fed with fresh, complete growth media. On the harvest (plating) day, cells were counted by Trypan Blue exclusion staining method.\n(§3) Cells were harvested and seeded in 96 well microtiter plates at 10,000 cells density in 150 μL of media and incubated for 24 hours to allow the cells to attach before drug addition. To collect reference data, the MTS assay was done on untreated cells at time 0 (after incubation of cells for 24 hours).\n(§4) The cytotoxic effect was measured by the MTS Assay (Tetrazolium), which is a colorimetric method for determining the number of viable cells. After the incubation period (24 hours for the Day 0 plate and 72 hours for the Test and Control plates), 25 μL of MTS+PMS solution was added to each microtiter well and incubated for 4 hours at 37° C. Plates were then removed from incubator and placed on plate shaker for 5 minutes (covered with aluminum foil for protection from light). Optical densities were read at 490 nm on spectrophotometer plate reader.\n(§5) IC50 values were calculated from an average of two to four assays for each of the test agents."}, "[2]": {"system": "AGS human gastric carcinoma cell line", "method": "as §1, §2, §3, §4, §5"}, "[3]": {"system": "Hs746T human gastric carcinoma cell line", "method": "as §1, §2, §3, §4, §5"}}, "data": [{"smiles": "CCc1c2c(nc3ccc(O)cc13)-c1cc3c(c(=O)n1C2)COC(=O)[C@]3(O)CC", "note": "[SN38, 7-ethyl-10-hydroxycamptothecin]", "values": [{"measurement": "IC50", "setting": "[1]", "value": 0.246, "unit": "µg/mL"}, {"measurement": "IC50", "setting": "[2]", "value": 0.00549, "unit": "µg/mL"}, {"measurement": "IC50", "setting": "[3]", "value": 0.0582, "unit": "µg/mL"}]}]}
